Assay results taken from PubChem BioAssay (NCI).
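Protocol summary: plate cells (96-well), add compound at 5 concentrations, incubate 48 h, interpolate endpoints linearly. GI50 is the concentration that inhibits growth by half. TGI is the concentration that stops growth completely.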

How the values were obtained:
Assay in all cases: inhibition of tumour cell growth, NCI panel, 48 h
SF-295 CNS = test system: SF-295 CNS
KM12 colon = test system: KM12 colon
COLO 205 colon = test system: COLO 205 colon
HOP-62 NSCLC = test system: HOP-62 NSCLC
HCC-2998 colon = test system: HCC-2998 colon
IGROV1 ovarian = test system: IGROV1 ovarian
SN12C renal = test system: SN12C renal
UACC-62 melanoma = test system: UACC-62 melanoma
A549 NSCLC = test system: A549 NSCLC
A498 renal = test system: A498 renal
HL-60(TB) leukemia = test system: HL-60(TB) leukemia
NCI-H522 lung = test system: NCI-H522 lung
786-0 renal = test system: 786-0 renal
SK-MEL-2 melanoma = test system: SK-MEL-2 melanoma
DU-145 prostate = test system: DU-145 prostate
NCI-H226 lung = test system: NCI-H226 lung
K-562 leukemia = test system: K-562 leukemia
T-47D breast = test system: T-47D breast
SK-OV-3 ovarian = test system: SK-OV-3 ovarian
HCT-116 colon = test system: HCT-116 colon
SNB-19 CNS = test system: SNB-19 CNS
HOP-92 NSCLC = test system: HOP-92 NSCLC
ACHN renal = test system: ACHN renal
SK-MEL-28 melanoma = test system: SK-MEL-28 melanoma
OVCAR-4 ovarian = test system: OVCAR-4 ovarian
LOX IMVI melanoma = test system: LOX IMVI melanoma
HT29 colon = test system: HT29 colon
NCI-H23 lung = test system: NCI-H23 lung
OVCAR-5 ovarian = test system: OVCAR-5 ovarian
CCRF-CEM leukemia = test system: CCRF-CEM leukemia
NCI-H460 lung = test system: NCI-H460 lung
MOLT-4 leukemia = test system: MOLT-4 leukemia
HS 578T breast = test system: HS 578T breast
RPMI-8226 leukemia = test system: RPMI-8226 leukemia
SF-539 CNS = test system: SF-539 CNS
MDA-MB-435 = test system: MDA-MB-435
MALME-3M melanoma = test system: MALME-3M melanoma
RXF 393 renal = test system: RXF 393 renal
OVCAR-3 ovarian = test system: OVCAR-3 ovarian
MDA-MB-468 breast = test system: MDA-MB-468 breast
SF-268 CNS = test system: SF-268 CNS
HCT-15 colon = test system: HCT-15 colon
EKVX NSCLC = test system: EKVX NSCLC
M14 melanoma = test system: M14 melanoma
TK-10 renal = test system: TK-10 renal
PC-3 prostate = test system: PC-3 prostate
SW-620 colon = test system: SW-620 colon
SK-MEL-5 melanoma = test system: SK-MEL-5 melanoma
MCF7 breast = test system: MCF7 breast
CAKI-1 renal = test system: CAKI-1 renal
UACC-257 melanoma = test system: UACC-257 melanoma
NCI/ADR-RES ovarian = test system: NCI/ADR-RES ovarian
SNB-75 CNS = test system: SNB-75 CNS
BT-549 breast = test system: BT-549 breast
OVCAR-8 ovarian = test system: OVCAR-8 ovarian
U251 CNS = test system: U251 CNS

O=C(c1ccccc1)n1ccc(-c2cc3cc(Br)ccc3oc2=O)n1
GI50 (SF-295 CNS): 8.91 µM | TGI (SF-295 CNS): > 100 µM | GI50 (KM12 colon): 4.45 µM | TGI (KM12 colon): > 100 µM | GI50 (COLO 205 colon): 19.1 µM | TGI (COLO 205 colon): 73.6 µM | GI50 (HOP-62 NSCLC): 3.48 µM | TGI (HOP-62 NSCLC): > 100 µM | GI50 (HCC-2998 colon): 5.29 µM | TGI (HCC-2998 colon): > 100 µM | GI50 (IGROV1 ovarian): 5.48 µM | TGI (IGROV1 ovarian): > 100 µM | GI50 (SN12C renal): 6.28 µM | TGI (SN12C renal): > 100 µM | GI50 (UACC-62 melanoma): 3.55 µM | TGI (UACC-62 melanoma): 22.9 µM | GI50 (A549 NSCLC): 12.6 µM | TGI (A549 NSCLC): > 100 µM | GI50 (A498 renal): > 100 µM | TGI (A498 renal): > 100 µM | GI50 (HL-60(TB) leukemia): 2.09 µM | TGI (HL-60(TB) leukemia): 5.49 µM | GI50 (NCI-H522 lung): 3.36 µM | TGI (NCI-H522 lung): 17 µM | GI50 (786-0 renal): 3.99 µM | TGI (786-0 renal): > 100 µM | GI50 (SK-MEL-2 melanoma): 5.6 µM | TGI (SK-MEL-2 melanoma): 74.7 µM | GI50 (DU-145 prostate): 8.9 µM | TGI (DU-145 prostate): > 100 µM | GI50 (NCI-H226 lung): 7.23 µM | TGI (NCI-H226 lung): 62.1 µM | GI50 (K-562 leukemia): 3.59 µM | TGI (K-562 leukemia): > 100 µM | GI50 (T-47D breast): 6.22 µM | TGI (T-47D breast): 70.9 µM | GI50 (SK-OV-3 ovarian): 6.08 µM | TGI (SK-OV-3 ovarian): 62.5 µM | GI50 (HCT-116 colon): 3.52 µM | TGI (HCT-116 colon): > 100 µM | GI50 (SNB-19 CNS): 9.97 µM | TGI (SNB-19 CNS): > 100 µM | GI50 (HOP-92 NSCLC): 0.545 µM | TGI (HOP-92 NSCLC): > 100 µM | GI50 (ACHN renal): 3.94 µM | TGI (ACHN renal): > 100 µM | GI50 (SK-MEL-28 melanoma): 6.05 µM | TGI (SK-MEL-28 melanoma): > 100 µM | GI50 (OVCAR-4 ovarian): 4.56 µM | TGI (OVCAR-4 ovarian): > 100 µM | GI50 (LOX IMVI melanoma): 2.8 µM | TGI (LOX IMVI melanoma): 90.9 µM | GI50 (HT29 colon): 16.5 µM | TGI (HT29 colon): > 100 µM | GI50 (NCI-H23 lung): 5.87 µM | TGI (NCI-H23 lung): > 100 µM | GI50 (OVCAR-5 ovarian): 13.9 µM | TGI (OVCAR-5 ovarian): > 100 µM | GI50 (CCRF-CEM leukemia): 1.52 µM | TGI (CCRF-CEM leukemia): 15.6 µM | GI50 (NCI-H460 lung): 3.78 µM | TGI (NCI-H460 lung): > 100 µM | GI50 (MOLT-4 leukemia): 3.32 µM | TGI (MOLT-4 leukemia): 9.55 µM | GI50 (HS 578T breast): 17.5 µM | TGI (HS 578T breast): > 100 µM | GI50 (RPMI-8226 leukemia): 3.8 µM | TGI (RPMI-8226 leukemia): > 100 µM | GI50 (SF-539 CNS): 7.44 µM | TGI (SF-539 CNS): 67.3 µM | GI50 (MDA-MB-435): 14.7 µM | TGI (MDA-MB-435): > 100 µM | GI50 (MALME-3M melanoma): 5.9 µM | TGI (MALME-3M melanoma): > 100 µM | GI50 (RXF 393 renal): 6.18 µM | TGI (RXF 393 renal): > 100 µM | GI50 (OVCAR-3 ovarian): 2.06 µM | TGI (OVCAR-3 ovarian): > 100 µM | GI50 (MDA-MB-468 breast): 3.6 µM | TGI (MDA-MB-468 breast): 25.2 µM | GI50 (SF-268 CNS): 4.29 µM | TGI (SF-268 CNS): > 100 µM | GI50 (HCT-15 colon): 2.88 µM | TGI (HCT-15 colon): > 100 µM | GI50 (EKVX NSCLC): 2.7 µM | TGI (EKVX NSCLC): > 100 µM | GI50 (M14 melanoma): 3.94 µM | TGI (M14 melanoma): 24 µM | GI50 (TK-10 renal): 47.5 µM | TGI (TK-10 renal): > 100 µM | GI50 (PC-3 prostate): 4.05 µM | TGI (PC-3 prostate): > 100 µM | GI50 (SW-620 colon): 5.15 µM | TGI (SW-620 colon): > 100 µM | GI50 (SK-MEL-5 melanoma): 4.14 µM | TGI (SK-MEL-5 melanoma): 23.6 µM | GI50 (MCF7 breast): 2.74 µM | TGI (MCF7 breast): > 100 µM | GI50 (CAKI-1 renal): 4.16 µM | TGI (CAKI-1 renal): > 100 µM | GI50 (UACC-257 melanoma): 4 µM | TGI (UACC-257 melanoma): 30.2 µM | GI50 (NCI/ADR-RES ovarian): 4.13 µM | TGI (NCI/ADR-RES ovarian): 81.3 µM | GI50 (SNB-75 CNS): 7.09 µM | TGI (SNB-75 CNS): > 100 µM | GI50 (BT-549 breast): 5.18 µM | TGI (BT-549 breast): 78 µM | GI50 (OVCAR-8 ovarian): 2.73 µM | TGI (OVCAR-8 ovarian): 51.6 µM | GI50 (U251 CNS): 4.82 µM | TGI (U251 CNS): > 100 µM
